Experimental data from ChEMBL document CHEMBL1124100, “Structure-activity profile of a series of novel triazoloquinazoline adenosine antagonists” (J Med Chem, 1988).

Columns and labels:
Cavia porcellus [1] = species on record: Cavia porcellus; assay: Inhibition of 2-chloroadenosine-induced relaxation in histamine-contracted guinea pig trachea; type: functional, organism-based
Adenosine A2 receptor = Adenosine A2 receptor (Rattus norvegicus, UniProt P29276+P30543)
Description: Inhibition of binding to Adenosine-2 receptor using [3H]NECA in rat striatum

Adenosine receptor A1 = biological target: T1, Adenosine receptor A1 (Rattus norvegicus, UniProt P25099); assay: Inhibition of binding towards adenosine A1 receptor using [3H]N-cyclohexyladenosine ([3H]CHA) in rat whole brain membranes.; type: cell membranes
T1 sequence (P25099 whole entry): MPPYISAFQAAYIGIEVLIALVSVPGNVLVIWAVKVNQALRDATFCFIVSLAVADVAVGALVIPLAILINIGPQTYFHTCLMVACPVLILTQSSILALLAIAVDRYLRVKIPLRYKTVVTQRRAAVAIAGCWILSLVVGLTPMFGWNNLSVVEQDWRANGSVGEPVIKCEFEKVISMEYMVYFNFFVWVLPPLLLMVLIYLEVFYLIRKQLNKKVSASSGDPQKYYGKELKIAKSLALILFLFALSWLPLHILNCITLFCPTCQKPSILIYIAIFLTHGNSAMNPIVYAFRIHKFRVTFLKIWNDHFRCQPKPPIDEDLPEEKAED

[2] = biological target: T2, Adenosine receptor A1 (Rattus norvegicus) (UniProt P25099); assay: (§1) Ratio of Ki at A2 to Ki at A1 receptors
T2 sequence (whole entry): T1 sequence (P25099 whole entry)

Cavia porcellus [3] = species on record: Cavia porcellus; assay: In vitro inhibition of adenylate cyclase activity of synaptoneurosomes from guinea pig cerebral cortex; type: functional
[4] = as §1

Structure (SMILES)	IC50 (Cavia porcellus [1])	IC50 (Adenosine A2 receptor)	IC50 (Adenosine receptor A1)	Ratio [2]	IC50 (Cavia porcellus [3])	Ratio [4]
CS(=O)(=O)O.Nc1nc2ccc(Cl)cc2c2nc(-c3ccco3)nn12	3 nM	3.3 nM	–	–	–	–
Nc1nc2ccc(Cl)cc2c2nc(-c3ccc(Br)o3)nn12	> 1000 nM	531 nM	1570 nM	0.34	–	–
CS(=O)(=O)O.Nc1nc2ccc(Cl)cc2c2nc(-c3ccoc3)nn12	> 1000 nM	145 nM	295 nM	–	79 nM	0.49
Nc1nc2ccc(Cl)cc2c2nc(C3CCCO3)nn12 (stereo unspecified)	> 1000 nM	1580 nM	827 nM	1.9	480 nM	–
Cn1c(=O)c2nc[nH]c2n(C)c1=O [THEOPHYLLINE]	3000 nM	–	–	–	10000 nM	–
CS(=O)(=O)O.Cn1c(=N)n2nc(-c3ccco3)nc2c2ccccc21	> 1000 nM	2914 nM	1220 nM	2.4	1480 nM	–
CCC(C)Nc1nc2ccc(Cl)cc2c2nc(-c3ccco3)nn12.CS(=O)(=O)O (stereo unspecified)	> 1000 nM	158 nM	61 nM	2.6	–	–
CS(=O)(=O)O.Nc1nc2ccc(Cl)cc2c2nc(-c3ccc[nH]3)nn12	> 1000 nM	1205 nM	610 nM	2	–	–
CS(=O)(=O)O.Nc1nc2ccc(Cl)cc2c2nc(-c3cccs3)nn12	> 1000 nM	116 nM	324 nM	0.36	200 nM	–

The next lines start with results.

IC50 (Cavia porcellus [1])	IC50 (Adenosine A2 receptor)	IC50 (Adenosine receptor A1)	Ratio [2]	Structure (SMILES)	IC50 (Cavia porcellus [3])	Ratio [4]
> 1000 nM	> 10000 nM	> 10000 nM	–	CC(C)(C)Nc1nc2ccc(Cl)cc2c2nc(-c3ccco3)nn12	–	–
> 1000 nM	179 nM	22 nM	8.2	CC(C)Nc1nc2ccc(Cl)cc2c2nc(-c3ccco3)nn12	400 nM	–
> 10000 nM	19 nM	31 nM	0.61	COc1ccc2nc(N)n3nc(-c4ccco4)nc3c2c1	–	–
> 10000 nM	1290 nM	145 nM	8.9	Nc1nc2ccc(OCc3ccccc3)cc2c2nc(-c3ccco3)nn12	–	–
> 1000 nM	> 10000 nM	10000 nM	–	Oc1nc2ccc(Cl)cc2c2nc(-c3ccco3)nn12	–	–
1000 nM	5.5 nM	9.5 nM	0.58	Nc1nc2ccc(O)cc2c2nc(-c3ccco3)nn12	–	–
> 1000 nM	> 10000 nM	> 10000 nM	–	CN(C)c1nc2ccc(Cl)cc2c2nc(-c3ccco3)nn12	> 1000 nM	–
> 1000 nM	56 nM	21 nM	2.7	OCCNc1nc2ccc(Cl)cc2c2nc(-c3ccco3)nn12	–	–
> 1000 nM	61 nM	89 nM	0.69	CNc1nc2ccc(Cl)cc2c2nc(-c3ccco3)nn12	–	–
100 nM	27 nM	38 nM	0.71	Nc1nc2ccccc2c2nc(-c3ccco3)nn12	40 nM	–
